Measured values as given in ChEMBL document CHEMBL2016457, “Discovery of potent and orally bioavailable 17β-hydroxysteroid dehydrogenase type 3 inhibitors” (Bioorg Med Chem, 2012).
The source made the active and inactive calls. The rule behind the calls is not given here.

Tests used:
[1] = biological target: T1, Androgen receptor (Homo sapiens) (UniProt P10275); assay: Antagonist activity at human androgen receptor expressed in human HeLa cells assessed as inhibition of DHT-induced response after 40 hrs by luciferase/beta-galactosidase-based reporter gene assay; assay type: functional, cell-based
T1 sequence (whole entry): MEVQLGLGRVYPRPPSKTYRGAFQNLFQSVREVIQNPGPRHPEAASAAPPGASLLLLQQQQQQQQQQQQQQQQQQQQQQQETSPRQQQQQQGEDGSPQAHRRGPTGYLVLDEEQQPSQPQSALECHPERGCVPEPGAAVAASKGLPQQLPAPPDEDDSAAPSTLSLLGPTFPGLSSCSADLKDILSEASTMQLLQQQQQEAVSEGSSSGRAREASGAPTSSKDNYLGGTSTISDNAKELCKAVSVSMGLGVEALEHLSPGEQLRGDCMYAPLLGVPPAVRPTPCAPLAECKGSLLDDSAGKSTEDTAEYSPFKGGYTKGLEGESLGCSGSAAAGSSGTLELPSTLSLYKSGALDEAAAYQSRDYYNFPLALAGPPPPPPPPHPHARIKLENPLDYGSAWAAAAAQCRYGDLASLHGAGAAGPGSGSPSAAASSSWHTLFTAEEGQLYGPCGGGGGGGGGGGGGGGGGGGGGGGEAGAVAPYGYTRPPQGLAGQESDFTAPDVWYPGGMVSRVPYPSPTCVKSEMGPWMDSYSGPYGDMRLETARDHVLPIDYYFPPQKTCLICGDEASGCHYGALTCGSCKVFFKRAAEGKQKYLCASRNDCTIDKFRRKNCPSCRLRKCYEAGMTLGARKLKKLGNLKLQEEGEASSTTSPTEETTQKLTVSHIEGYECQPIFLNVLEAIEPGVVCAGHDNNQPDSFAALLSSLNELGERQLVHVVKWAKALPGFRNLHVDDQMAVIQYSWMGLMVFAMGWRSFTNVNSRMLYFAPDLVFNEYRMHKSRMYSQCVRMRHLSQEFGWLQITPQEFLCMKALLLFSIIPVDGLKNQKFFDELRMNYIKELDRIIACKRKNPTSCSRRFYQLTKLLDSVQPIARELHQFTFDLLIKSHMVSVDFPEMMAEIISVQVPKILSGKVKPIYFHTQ

[2] = biological target: T2, Estrogen receptor (Homo sapiens) (UniProt P03372); assay: Antagonist activity at human ERalpha receptor expressed in human HeLa cells assessed as inhibition of DHT-induced response after 40 hrs by luciferase/beta-galactosidase-based reporter gene assay; assay type: functional, cell-based
T2 sequence (whole entry): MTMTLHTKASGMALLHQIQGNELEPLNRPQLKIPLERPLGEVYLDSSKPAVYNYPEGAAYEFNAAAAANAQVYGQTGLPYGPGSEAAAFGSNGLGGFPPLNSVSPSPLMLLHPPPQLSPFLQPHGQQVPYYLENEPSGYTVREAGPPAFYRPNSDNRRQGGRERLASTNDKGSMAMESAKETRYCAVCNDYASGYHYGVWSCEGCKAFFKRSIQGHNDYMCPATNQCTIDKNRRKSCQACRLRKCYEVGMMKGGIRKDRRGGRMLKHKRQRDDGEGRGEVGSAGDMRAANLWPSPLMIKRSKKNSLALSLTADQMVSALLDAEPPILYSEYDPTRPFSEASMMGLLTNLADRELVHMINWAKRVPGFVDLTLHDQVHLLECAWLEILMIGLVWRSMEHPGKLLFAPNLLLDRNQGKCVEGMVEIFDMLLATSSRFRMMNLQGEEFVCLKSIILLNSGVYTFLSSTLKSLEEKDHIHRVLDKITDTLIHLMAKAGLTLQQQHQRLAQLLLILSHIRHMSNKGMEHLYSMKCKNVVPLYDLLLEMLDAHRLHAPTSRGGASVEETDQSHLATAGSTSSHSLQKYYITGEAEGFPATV

[3] = biological target: T3, 17-beta-hydroxysteroid dehydrogenase type 2 (Homo sapiens) (UniProt P37059); assay: Inhibition of human recombinant 17-beta-HSD2 expressed in human HeLa cells using estradiol as substrate preincubated for 30 mins prior substrate addition measured after 120 mins by spectrophotometry; assay type: cell-based
T3 sequence (whole entry): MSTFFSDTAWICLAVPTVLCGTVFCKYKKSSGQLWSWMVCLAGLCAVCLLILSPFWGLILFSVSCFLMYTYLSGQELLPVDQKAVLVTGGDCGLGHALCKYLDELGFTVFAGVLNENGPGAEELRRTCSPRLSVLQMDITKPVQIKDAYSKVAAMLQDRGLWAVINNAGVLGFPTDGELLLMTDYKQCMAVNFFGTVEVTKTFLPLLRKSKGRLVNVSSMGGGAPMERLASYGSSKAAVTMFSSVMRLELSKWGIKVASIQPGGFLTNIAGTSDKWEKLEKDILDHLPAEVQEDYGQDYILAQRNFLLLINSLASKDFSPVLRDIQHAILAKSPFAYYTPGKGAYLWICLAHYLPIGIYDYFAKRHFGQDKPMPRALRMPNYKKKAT

[4] = biological target: T1, Androgen receptor (Homo sapiens); assay: Agonist activity at human androgen receptor expressed in human HeLa cells assessed as DHT-induced response after 40 hrs by luciferase/beta-galactosidase-based reporter gene assay; assay type: functional, cell-based
[5] = biological target: T4, 17-beta-hydroxysteroid dehydrogenase type 3 (Homo sapiens, UniProt P37058)
T4 sequence (P37058 whole entry): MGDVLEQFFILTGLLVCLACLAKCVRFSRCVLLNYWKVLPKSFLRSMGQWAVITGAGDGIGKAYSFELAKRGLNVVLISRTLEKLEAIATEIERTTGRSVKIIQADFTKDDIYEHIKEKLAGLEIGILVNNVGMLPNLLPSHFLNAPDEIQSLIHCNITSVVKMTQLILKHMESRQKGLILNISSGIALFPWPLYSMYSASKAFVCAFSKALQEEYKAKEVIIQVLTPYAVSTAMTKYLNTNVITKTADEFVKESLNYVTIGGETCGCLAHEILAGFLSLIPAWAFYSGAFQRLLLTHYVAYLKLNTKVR
Description: Inhibition of human recombinant 17-beta-HSD3 expressed in human HeLa cells using androstenedione as substrate preincubated for 30 mins prior substrate addition measured after 120 mins by spectrophotometry

[6] = biological target: T5, Glucocorticoid receptor (Homo sapiens) (UniProt P04150); assay: Antagonist activity at human GR receptor expressed in human HeLa cells assessed as inhibition of DHT-induced response after 40 hrs by luciferase/beta-galactosidase-based reporter gene assay; assay type: functional, cell-based
T5 sequence (whole entry): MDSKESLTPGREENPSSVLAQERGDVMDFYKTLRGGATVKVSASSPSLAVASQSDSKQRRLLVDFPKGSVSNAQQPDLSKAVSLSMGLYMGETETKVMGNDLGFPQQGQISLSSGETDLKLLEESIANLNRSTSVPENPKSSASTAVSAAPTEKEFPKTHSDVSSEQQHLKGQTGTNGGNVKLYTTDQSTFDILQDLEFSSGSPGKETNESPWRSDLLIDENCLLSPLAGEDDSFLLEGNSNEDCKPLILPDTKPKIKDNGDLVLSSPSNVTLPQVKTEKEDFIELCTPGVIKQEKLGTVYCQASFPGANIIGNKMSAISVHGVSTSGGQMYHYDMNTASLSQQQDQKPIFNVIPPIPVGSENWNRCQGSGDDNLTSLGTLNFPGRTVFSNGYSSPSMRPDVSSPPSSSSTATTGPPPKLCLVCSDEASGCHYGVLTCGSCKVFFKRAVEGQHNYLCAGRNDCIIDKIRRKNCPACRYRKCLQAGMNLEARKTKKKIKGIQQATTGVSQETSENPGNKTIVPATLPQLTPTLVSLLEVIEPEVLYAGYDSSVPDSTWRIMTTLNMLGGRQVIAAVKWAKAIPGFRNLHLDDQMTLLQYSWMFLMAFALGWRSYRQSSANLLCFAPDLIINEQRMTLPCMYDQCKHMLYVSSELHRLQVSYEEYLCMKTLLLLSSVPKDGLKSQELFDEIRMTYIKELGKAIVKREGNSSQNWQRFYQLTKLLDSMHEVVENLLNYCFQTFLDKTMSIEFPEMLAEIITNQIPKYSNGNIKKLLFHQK

[7] = biological target: T5, Glucocorticoid receptor (Homo sapiens); assay: Agonist activity at human Glucocorticoid receptor expressed in human HeLa cells assessed as DHT-induced response after 40 hrs by luciferase/beta-galactosidase-based reporter gene assay; assay type: functional, cell-based
[8] = biological target: T2, Estrogen receptor (Homo sapiens); assay: Agonist activity at human Estrogen receptor ERalpha expressed in human HeLa cells assessed as DHT-induced response after 40 hrs by luciferase/beta-galactosidase-based reporter gene assay; assay type: functional, cell-based
[9] = biological target: T6, 17-beta-hydroxysteroid dehydrogenase type 1 (Homo sapiens) (UniProt P14061); assay: Inhibition of human recombinant 17-beta-HSD1 expressed in human HeLa cells using estrone as substrate preincubated for 30 mins prior substrate addition measured after 120 mins by spectrophotometry; assay type: cell-based
T6 sequence (whole entry): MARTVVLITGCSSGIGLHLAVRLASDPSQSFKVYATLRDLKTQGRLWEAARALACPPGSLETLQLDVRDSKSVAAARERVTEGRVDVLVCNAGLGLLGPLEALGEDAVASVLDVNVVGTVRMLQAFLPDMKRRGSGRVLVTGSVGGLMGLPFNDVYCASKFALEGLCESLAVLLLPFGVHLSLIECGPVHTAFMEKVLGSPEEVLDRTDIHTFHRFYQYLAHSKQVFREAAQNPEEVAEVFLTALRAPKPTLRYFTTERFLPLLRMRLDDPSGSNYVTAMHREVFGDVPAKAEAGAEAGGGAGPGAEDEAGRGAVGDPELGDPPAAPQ

Activity [1] | Activity [2] | inhibition [3] | Activity [4] | IC50 [5] [nM] | Activity [6] | Activity [7] | Activity [8] | inhibition [9] | SMILES
inactive | inactive | inactive | inactive | 5 | inactive | inactive | inactive | inactive | COc1ccc(N2C(=O)/C(=C/c3ccc(O)cc3Cl)OC2=S)cc1
inactive | inactive | inactive | inactive | 21 | inactive | inactive | inactive | inactive | O=C(Nc1ccc(N2C(=O)O/C(=C\c3ccc(O)c(Br)c3)C2=O)cc1)C1CCCCC1
inactive | inactive | inactive | inactive | 65 | inactive | inactive | inactive | inactive | CN(C)C(=O)c1ccc(N2C(=O)O/C(=C\c3ccc(O)c(Br)c3)C2=O)cc1
inactive | inactive | inactive | inactive | 890 | inactive | inactive | inactive | inactive | CN1C(=O)/C(=C/c2ccc(O)c(Br)c2)SC1=S
inactive | inactive | inactive | inactive | 74 | inactive | inactive | inactive | inactive | O=C1O/C(=C\c2ccc(O)c(Br)c2)C(=O)N1c1ccccn1
inactive | inactive | inactive | inactive | 900 | inactive | inactive | inactive | inactive | CS(=O)(=O)c1ccc(N2C(=O)O/C(=C\c3ccc(O)c(Br)c3)C2=O)cc1
inactive | inactive | inactive | inactive | 42 | inactive | inactive | inactive | inactive | COc1ccc(N2C(=O)/C(=C/c3ccc(O)c(Br)n3)OC2=S)cc1
inactive | inactive | inactive | inactive | 67 | inactive | inactive | inactive | inactive | Cc1ccc(N2C(=O)O/C(=C\c3ccc(O)c(Br)c3)C2=O)cn1
inactive | inactive | inactive | inactive | 6 | inactive | inactive | inactive | inactive | O=C1/C(=C/c2ccc(O)c(Br)c2)OC(=S)N1c1ccccc1
inactive | inactive | inactive | inactive |  | inactive | inactive | inactive | inactive | COc1ccc(N2C(=O)O/C(=C\c3ccc(O)c(Br)c3)C2=O)cc1
inactive | inactive | inactive | inactive | 19 | inactive | inactive | inactive | inactive | N#Cc1ccc(N2C(=O)/C(=C/c3ccc(O)c(Br)c3)OC2=S)cc1
inactive | inactive | inactive | inactive |  | inactive | inactive | inactive | inactive | COc1ccc(N2C(=O)/C(=C/c3ccc(O)c(Br)c3)SC2=S)cc1
